Measurements taken from PMC12752606, “METTL10‐Mediated PIAS3 Methylation Links Purine Metabolism to Gastric Cancer Progression” (Advanced Science, 2025).
pIC50, pKd: −log10 of the molar value.

What was measured:
[1] = target: T1, GFP-tagged METTL10 protein (Homo sapiens, UniProt Q5JPI9); test: Microscale thermophoresis (MST); format: binding; conditions: lysate of HEK293T cells expressing GFP-METTL10, read-out: Dissociation constant (KD)
T1 construct: host or cells: HEK293T
Experimental: Microscale thermophoresis (MST) assays were conducted following the protocol.^[ [49] ^] Briefly, HEK293T cells were transfected with either the pEGFP‐N1‐METTL10 plasmid or the control pEGFP‐N1‐Vector plasmid for 24 h. Subsequently, protein lysates were obtained through ultrasonic disruption at 4 °C. Aliquots of the lysate were then incubated with serially diluted ligands at 37 °C for 30 min. Fluorescence signals were measured, and dissociation constants (Kd) were determined using the NanoTemper Monolith Pico.

MKN45 and AGS cells = test: Cell proliferation, CCK-8 assay; format: cell-based; conditions: 10 and 20 µM
Experimental: Cell proliferation was assessed using Cell Counting Kit‐8 (CCK‐8; K1018, APExBIO). Briefly, 1000 cells per well were seeded into 96‐well plates, and proliferation was measured at 450 nm on days 0, 1, 3, 5, and 7 using the CCK‐8 assay using a multifunctional microplate reader.

METTL10 = target: T2, METTL10 (Homo sapiens, UniProt Q5JPI9); test: MTase-Glo in vitro methylation assay, METTL10-mediated PIAS3 methylation; format: biochemical
T2 construct: His; made in house; host or cells: E. coli BL21
Experimental: For the in vitro methylation assay, His‐METTL10 (1 µg) was incubated with recombinant human Histone H4 protein (20 ng; Abcam, ab198115) or GST‐PIAS3 (100 ng) of in methylation reaction buffer (50 mM Tris‐HCl (pH 8.0), 20 mM KCl, 5 mM DTT, 4 mM EDTA) containing 20 µM S‐(5′‐adenosyl)‐L‐methionine chloride dihydrochloride (SAM) at 37 °C for 1 h. The reaction was terminated by boiling the samples in SDS‐PAGE loading buffer, and the products were analyzed by immunoblotting.
To identify METTL10 inhibitors, an in‐silico screening was first conducted on an in‐house compound library comprising approximately 6000 structurally diverse molecules. Molecular docking simulations with the METTL10 protein identified 111 candidate compounds for further analysis. The methyltransferase activity of these candidates was assessed using the MTase‐Glo Methyltransferase Assay (Promega, V7601) according to the manufacturer's protocol. Briefly, the candidate compounds were preincubated with His‐METTL10 protein (1 µg) at 37 °C for 1 h in a methylation reaction buffer (50 mM Tris‐HCl (pH 8.0), 20 mM KCl, 5 mM DTT, 4 mM EDTA, and 20 µM SAM), followed by the addition of either the Histone H4 or PIAS3 peptide substrate for an additional 1 h. The reaction was then subjected to MTase‐Glo reagent buffer for 30 min, followed by MTase‐Glo detection buffer for another 30 min. Luminescence was measured using a luminometer (Promega), and IC50 values were calculated using GraphPad Prism 8 software.

DOT1L = DOT1L (Homo sapiens, UniProt Q8TEK3); test: Off-target methyltransferase profiling (MTase-Glo); format: biochemical
Experimental: (§1) To evaluate the off‐target effects of LZQ‐02‐023‐01 on methyltransferase activity, a panel of enzymes was assessed using the MTase‐Glo Methyltransferase Assay (Promega), following the manufacturer's instructions. The assay was performed by ICE Bioscience Inc. Briefly, LZQ‐02‐023‐01 was serially diluted 4‐fold in DMSO to generate a 10‐point concentration gradient, and the resulting solutions were dispensed into 384‐well white assay plates using an Echo acoustic liquid handler (Labcyte). Plates were centrifuged at 1000 rpm for 1 min to ensure even compound distribution. Following a 10‐min preincubation at 25 °C, 2 µL of a substrate solution containing S‐adenosylmethionine (SAM) and the specific methyltransferase substrate (Table S7, Supporting Information) was added to each well. After a brief centrifugation, plates were incubated at 25 °C for 180 min to allow the enzymatic methylation reaction to proceed. Subsequently, 1 µL of MTase‐Glo reagent was added, followed by centrifugation and incubation at 25 °C for 45 min. Then, 5 µL of MTase‐Glo detection solution was introduced into each well, and the plates were incubated for an additional 45 min at 25 °C after centrifugation.
(§2) Luminescence signals were directly proportional to methyltransferase activity, were recorded using a microplate reader (BMG LABTECH). Percent inhibition was calculated by normalizing luminescence intensities of compound‐treated wells to DMSO‐treated controls, and IC50 values were calculated using GraphPad Prism 8 software.

SETD2 = SETD2 (Homo sapiens, UniProt Q9BYW2); test: Off-target methyltransferase profiling (MTase-Glo); format: biochemical
Experimental: as §1, §2

G9A = G9A (Homo sapiens, UniProt Q96KQ7); test: Off-target methyltransferase profiling (MTase-Glo); format: biochemical
Experimental: as §1, §2

SUV39H2 = SUV39H2 (Homo sapiens, UniProt Q9H5I1); test: Off-target methyltransferase profiling (MTase-Glo); format: biochemical
Experimental: as §1, §2

NSD1 = NSD1 (Homo sapiens, UniProt Q96L73); test: Off-target methyltransferase profiling (MTase-Glo); format: biochemical
Experimental: as §1, §2

PRMT5+MTA = PRMT5+MTA (Homo sapiens, UniProt O14744); test: Off-target methyltransferase profiling (MTase-Glo); format: biochemical
Experimental: as §1, §2

SMYD2 = SMYD2 (Homo sapiens, UniProt Q9NRG4); test: Off-target methyltransferase profiling (MTase-Glo); format: biochemical
Experimental: as §1, §2

PRMT1 = PRMT1 (Homo sapiens, UniProt Q99873); test: Off-target methyltransferase profiling (MTase-Glo); format: biochemical
Experimental: as §1, §2

T2 sequence (Q5JPI9 1-291 isoform Q5JPI9-1): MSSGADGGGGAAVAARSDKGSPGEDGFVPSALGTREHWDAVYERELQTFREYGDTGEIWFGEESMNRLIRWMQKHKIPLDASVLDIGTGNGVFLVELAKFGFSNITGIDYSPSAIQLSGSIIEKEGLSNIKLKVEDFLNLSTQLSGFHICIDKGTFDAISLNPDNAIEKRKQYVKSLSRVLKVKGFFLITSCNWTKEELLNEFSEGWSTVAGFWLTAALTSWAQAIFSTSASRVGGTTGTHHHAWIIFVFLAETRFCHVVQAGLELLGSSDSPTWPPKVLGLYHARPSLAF
T1 sequence (Q5JPI9 1-291 isoform Q5JPI9-1): as above
Sequence of SUV39H2 (Q9H5I1 whole entry, species assumed): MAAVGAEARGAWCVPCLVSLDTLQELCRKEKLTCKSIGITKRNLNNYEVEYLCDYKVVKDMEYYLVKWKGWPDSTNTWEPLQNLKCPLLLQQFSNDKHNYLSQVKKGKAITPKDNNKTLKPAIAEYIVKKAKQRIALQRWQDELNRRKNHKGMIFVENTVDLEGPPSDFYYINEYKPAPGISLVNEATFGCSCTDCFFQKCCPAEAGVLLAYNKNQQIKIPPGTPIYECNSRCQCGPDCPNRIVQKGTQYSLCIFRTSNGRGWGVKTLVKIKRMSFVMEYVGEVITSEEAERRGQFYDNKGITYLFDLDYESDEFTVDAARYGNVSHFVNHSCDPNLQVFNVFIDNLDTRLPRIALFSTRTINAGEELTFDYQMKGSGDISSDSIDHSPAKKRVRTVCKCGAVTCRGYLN
Sequence of SETD2 (Q9BYW2 whole entry, species assumed): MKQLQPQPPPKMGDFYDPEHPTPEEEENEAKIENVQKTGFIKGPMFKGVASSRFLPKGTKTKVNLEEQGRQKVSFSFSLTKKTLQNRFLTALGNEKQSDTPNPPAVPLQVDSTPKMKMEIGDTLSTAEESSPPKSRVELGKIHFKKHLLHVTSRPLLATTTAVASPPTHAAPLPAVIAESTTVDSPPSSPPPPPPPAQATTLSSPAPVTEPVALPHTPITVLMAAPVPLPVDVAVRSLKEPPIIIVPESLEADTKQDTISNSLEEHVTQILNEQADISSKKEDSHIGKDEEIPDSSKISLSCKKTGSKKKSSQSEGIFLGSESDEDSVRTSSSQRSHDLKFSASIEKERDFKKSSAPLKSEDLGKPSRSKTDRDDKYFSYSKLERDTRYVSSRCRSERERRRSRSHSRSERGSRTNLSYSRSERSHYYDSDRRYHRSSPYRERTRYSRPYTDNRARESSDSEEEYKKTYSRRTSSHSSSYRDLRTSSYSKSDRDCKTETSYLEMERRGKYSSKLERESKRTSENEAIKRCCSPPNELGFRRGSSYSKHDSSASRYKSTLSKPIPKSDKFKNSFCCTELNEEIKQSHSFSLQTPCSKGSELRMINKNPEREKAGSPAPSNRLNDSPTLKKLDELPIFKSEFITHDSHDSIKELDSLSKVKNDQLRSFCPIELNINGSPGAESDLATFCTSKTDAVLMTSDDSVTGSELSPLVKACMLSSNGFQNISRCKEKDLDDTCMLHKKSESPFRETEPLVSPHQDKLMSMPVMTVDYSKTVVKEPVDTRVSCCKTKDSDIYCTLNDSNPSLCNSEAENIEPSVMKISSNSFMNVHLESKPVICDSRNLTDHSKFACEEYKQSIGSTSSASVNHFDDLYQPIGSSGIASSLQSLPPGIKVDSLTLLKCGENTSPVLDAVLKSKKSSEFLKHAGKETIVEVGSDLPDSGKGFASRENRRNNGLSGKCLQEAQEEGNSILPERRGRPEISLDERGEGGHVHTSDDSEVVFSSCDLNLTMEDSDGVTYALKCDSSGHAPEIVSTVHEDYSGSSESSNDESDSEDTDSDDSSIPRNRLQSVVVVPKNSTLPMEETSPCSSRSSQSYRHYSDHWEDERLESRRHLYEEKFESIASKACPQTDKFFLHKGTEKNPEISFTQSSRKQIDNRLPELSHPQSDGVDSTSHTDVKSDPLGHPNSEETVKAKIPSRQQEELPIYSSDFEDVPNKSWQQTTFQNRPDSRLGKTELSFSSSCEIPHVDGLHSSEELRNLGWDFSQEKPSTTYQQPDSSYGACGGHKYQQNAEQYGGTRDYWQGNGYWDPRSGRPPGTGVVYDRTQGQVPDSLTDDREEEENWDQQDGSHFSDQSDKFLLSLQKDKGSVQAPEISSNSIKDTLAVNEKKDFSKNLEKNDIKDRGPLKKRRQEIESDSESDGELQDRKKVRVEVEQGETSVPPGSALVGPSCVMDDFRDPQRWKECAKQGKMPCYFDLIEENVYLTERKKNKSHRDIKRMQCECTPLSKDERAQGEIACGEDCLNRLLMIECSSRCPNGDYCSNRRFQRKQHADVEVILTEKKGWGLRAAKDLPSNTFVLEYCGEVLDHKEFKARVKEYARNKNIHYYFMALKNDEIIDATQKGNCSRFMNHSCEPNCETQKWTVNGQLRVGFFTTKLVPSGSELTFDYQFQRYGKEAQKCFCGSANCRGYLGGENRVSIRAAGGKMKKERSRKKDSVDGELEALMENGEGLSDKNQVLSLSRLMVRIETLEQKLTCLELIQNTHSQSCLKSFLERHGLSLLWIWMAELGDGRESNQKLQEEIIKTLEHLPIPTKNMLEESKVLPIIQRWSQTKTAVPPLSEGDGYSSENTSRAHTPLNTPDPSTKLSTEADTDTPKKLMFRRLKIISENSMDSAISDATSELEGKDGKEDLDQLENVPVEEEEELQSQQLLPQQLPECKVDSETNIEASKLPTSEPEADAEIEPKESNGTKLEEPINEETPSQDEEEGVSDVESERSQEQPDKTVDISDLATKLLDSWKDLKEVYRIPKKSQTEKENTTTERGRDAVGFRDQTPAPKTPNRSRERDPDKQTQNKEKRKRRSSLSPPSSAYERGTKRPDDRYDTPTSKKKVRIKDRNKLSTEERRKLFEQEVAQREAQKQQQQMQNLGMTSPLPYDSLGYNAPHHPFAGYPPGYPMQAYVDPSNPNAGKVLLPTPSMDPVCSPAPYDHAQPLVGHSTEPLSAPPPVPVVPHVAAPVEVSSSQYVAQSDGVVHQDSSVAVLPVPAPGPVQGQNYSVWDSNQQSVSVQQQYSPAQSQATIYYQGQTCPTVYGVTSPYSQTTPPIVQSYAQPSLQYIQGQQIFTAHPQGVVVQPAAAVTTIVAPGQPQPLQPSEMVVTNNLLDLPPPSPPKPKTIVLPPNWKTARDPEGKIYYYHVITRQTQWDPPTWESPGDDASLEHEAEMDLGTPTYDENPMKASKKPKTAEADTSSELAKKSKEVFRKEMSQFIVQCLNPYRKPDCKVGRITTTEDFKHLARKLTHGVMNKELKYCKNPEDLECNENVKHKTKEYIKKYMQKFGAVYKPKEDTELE
Sequence of PRMT5+MTA (O14744 whole entry, species assumed): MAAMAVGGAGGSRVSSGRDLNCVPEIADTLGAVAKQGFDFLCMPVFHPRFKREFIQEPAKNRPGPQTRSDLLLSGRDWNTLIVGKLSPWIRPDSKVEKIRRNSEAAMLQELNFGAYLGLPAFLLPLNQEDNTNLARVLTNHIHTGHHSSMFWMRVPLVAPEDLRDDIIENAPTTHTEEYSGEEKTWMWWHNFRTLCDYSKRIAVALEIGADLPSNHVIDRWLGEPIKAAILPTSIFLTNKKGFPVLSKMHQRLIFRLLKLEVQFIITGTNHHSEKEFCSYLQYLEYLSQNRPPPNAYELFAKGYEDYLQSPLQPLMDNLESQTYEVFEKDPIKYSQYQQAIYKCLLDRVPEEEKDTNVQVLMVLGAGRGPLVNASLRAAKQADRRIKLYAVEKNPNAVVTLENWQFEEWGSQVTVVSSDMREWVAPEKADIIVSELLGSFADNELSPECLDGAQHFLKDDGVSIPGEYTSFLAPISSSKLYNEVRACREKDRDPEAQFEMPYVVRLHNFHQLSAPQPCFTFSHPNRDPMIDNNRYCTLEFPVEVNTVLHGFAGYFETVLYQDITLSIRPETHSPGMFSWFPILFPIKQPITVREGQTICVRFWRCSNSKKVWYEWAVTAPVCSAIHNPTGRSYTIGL
Sequence of PRMT5+MTA (Q9BQA1 whole entry partner, species assumed): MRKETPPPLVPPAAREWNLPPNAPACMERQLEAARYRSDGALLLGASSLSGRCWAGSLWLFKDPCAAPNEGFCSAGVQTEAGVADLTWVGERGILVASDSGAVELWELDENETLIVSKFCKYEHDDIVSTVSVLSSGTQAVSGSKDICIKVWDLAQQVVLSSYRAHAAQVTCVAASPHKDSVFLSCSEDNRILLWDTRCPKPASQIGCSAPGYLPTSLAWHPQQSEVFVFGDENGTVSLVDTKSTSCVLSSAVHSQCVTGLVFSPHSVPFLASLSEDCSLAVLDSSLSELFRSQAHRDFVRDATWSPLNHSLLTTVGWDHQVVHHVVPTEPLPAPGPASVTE
Sequence of PRMT1 (Q99873 whole entry, species assumed): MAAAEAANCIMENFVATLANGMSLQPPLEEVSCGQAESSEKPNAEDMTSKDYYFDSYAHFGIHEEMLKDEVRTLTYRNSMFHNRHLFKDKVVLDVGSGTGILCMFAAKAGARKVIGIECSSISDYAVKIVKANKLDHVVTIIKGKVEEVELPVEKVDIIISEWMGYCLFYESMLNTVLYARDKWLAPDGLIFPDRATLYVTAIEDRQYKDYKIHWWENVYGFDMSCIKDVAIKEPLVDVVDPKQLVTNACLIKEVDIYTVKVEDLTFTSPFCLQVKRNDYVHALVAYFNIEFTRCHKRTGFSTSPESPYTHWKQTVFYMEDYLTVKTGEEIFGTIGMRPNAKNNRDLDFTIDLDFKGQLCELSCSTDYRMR

Compound: Cc1ccc(Nc2ncc3c(n2)N(C)C(=O)N(c2cccc(N)c2)C3)cn1 [LZQ-02-023-01, Three‐(3‐aminophenyl)‐1‐methyl‐7‐((6‐methylpyridin‐3‐yl)amino)‐3,4‐dihydropyrimido [4,5‐d] pyrimidin‐2 (1H)‐one]
- pKd [1]: 5.35
- GC cell proliferation (CCK-8) (MKN45 and AGS cells): significantly inhibited
- Structure-activity relationship, rank among structural analogs (METTL10; METTL10 activity toward GST-PIAS3): most potent inhibitor among its structural analogs
- Rank of potency among the 22 hit compounds (METTL10; METTL10 activity toward PIAS3): strongest potency
- pIC50 (METTL10; MTase-Glo, bacteria-purified GST-PIAS3 substrate, read-out: IC50, inhibition of METTL10 activity toward PIAS3): 4.93
- pIC50 (DOT1L): 4.88
- pIC50 (SETD2): 4.73
- pIC50 (G9A): 4.41
- pIC50 (SUV39H2): 4.96
- pIC50 (NSD1): 4.88
- pIC50 (PRMT5+MTA): 4.86
- pIC50 (SMYD2): 5.04
- pIC50 (PRMT1): 4.71
